Key:
[1] = tested on: brain phospholipid levels; assay: Brain phospholipid levels in rat pups of treated pregnant and nursing mothers; assay type: in vivo; settings: for PC / PE / PI / SM / Total Phospholipids: rat pups, postnatal day 20, mean
Method: In another study, pregnant rats were allowed to consume ad libitum, for 10 days before parturition and 20 days while nursing, either a choline-containing control diet or this diet supplemented with uridine as UMP; half of each group also received DHA or its diluent daily, by gavage. Pups were then sacrificed and brain slices were examined to determine numbers of hippocampal dendritic spines.
Pregnant and nursing rats were administered DHA and/or uridine as described in Example 9. At 20 days post-birth, rats were sacrificed and brain samples were obtained and assayed for phospholipids. Administration of DHA alone increased brain PC, PI, PE, and sphingomyelin (SM) per cell (DNA) by 36, 166, 38, and 78%, respectively. UMP markedly amplified the effects of DHA to 66, 210, 68, and 99% of control, respectively (Table 8). These increases were greater than those observed in adult animals. Similar results were obtained when normalizing to protein (Table 9). Thus, administration of DHA and/or uridine to pregnant and nursing mothers is able to increase phospholipid levels in the offspring.

[2] = tested on: SHSY-5Y cells; assay: 14C-choline incorporation into phospholipids in SHSY-5Y cells; assay type: cell-based, human; settings: 10 μM fatty acid, 18 hr; FIG. 3A
Method: SHSY-5Y cells were grown to near confluency in DMEM+10% FBS in 35 mm dishes. Cells were incubated for 18 hr in serum-free DMEM+1% FBS containing 30 μM choline+/−10 μM of DHA, arachidonic acid, or palmitic acid. Cells were then labeled, and labeled phospholipids were quantified as described for Example 1.
DHA was dissolved in ethanol to a […] concentration and frozen in 10 microliter aliquots at −80° C. For each experiment, one aliquot was diluted in ethanol to 10 micromolar; the volume giving the desired final solution in incubation medium was mixed with an equal volume of BSA solution (1 gm/ml).
The effect of omega-6 fatty acids on phospholipid synthesis was next examined in SHSY-5Y cells, a human neuroblastoma cell line. In this case, phospholipid synthesis was enhanced by arachidonic acid, an omega-6 fatty acid, but not by DHA or palmitic acid (FIG. 3A).
The effect of arachidonic acid on phospholipid synthesis in SHSY-5Y cells was further characterized as described for omega-3 fatty acids and PC-12 cells in Example 2.

[3] = tested on: brain CDP-choline levels; assay: Brain CDP-choline and CDP-ethanolamine levels in gerbils; assay type: in vivo, gerbil; settings: 28 days
Excerpt: FIGS. 5A and 5B. FIG. 5A illustrates the effect Effects of DHA on brain CDP-choline levels (FIG. 5A) and while FIG. 5B illustrates the effect of DHA on brain CDP-ethanolamine levels (FIG. 5B). Groups of 8 gerbils received either a control or a UMP-containing diet, and, by gavage, DHA (in a vehicle of 5% gum Arabic solution) or 5% gum Arabic solution alone for 28 days. On the 29th day brains were harvested and assayed for CDP-choline. Data are presented as means±SEM. Statistical analysis was performed using one- or two-way ANOVA followed by Tukey test. a: P<0.05 when compared with the values for control diet plus vehicle group; b: P<0.05 when compared with values for UMP diet plus vehicle group.
Aliquots (2 ml) of the upper (aqueous) phase were dried under a vacuum, reconstituted, and injected into an HPLC. The dried samples were reconstituted in 100-200 μl water and were analyzed by HPLC on an anion exchange column (Alltech Hypersil APS-2, […], 250×4.6 mm). CDP-choline was eluted with a linear gradient of buffers A (H3PO4, 1.75 mM, pH 2.9) and B (NaH2PO2, 500 mM, pH 4.5) from 0 to 100% B over period of 30 min. With this system, CDP-choline was resolved from closely co-eluting substances such as UMP in an isocratic system over a period of 40 min. The retention time for CDP-choline was 9.5 min. The column was washed with buffer B at the end of each experiment and every several days to remove retained nucleotides. Individual nucleotide peaks were detected by UV absorption at 280 nm and were identified by comparison with the positions of authentic standards, as well as by the addition of nucleotide standards to samples.
To determine the effect of PUFA administration on CDP-choline levels, brain CDP-choline levels were measured in the animals from the previous Example. Administration of DHA and/or UMP decreased CDP-choline levels (FIG. 5A) and CDP-ethanolamine levels (FIG. 5B). DHA reduced CDP-choline levels by 26% (compared with those receiving just the control diet and DHA's vehicle), and in UMP-treated gerbils by 21% (compared with those receiving UMP-containing diet and DHA's vehicle) (both P<0.05).

[4] = Table 9, nmol per microgram DNA

**Q.** What does the source list for CCC=CCC=CCC=CCC=CCC=CCC=CCCC(=O)O [DHA, 4,7,10,13,16,19-docosahexaenoic acid]?
**A.** PC ([1]; Table 8, nmol per mg protein): 115.7 nmol/mg protein; PE ([1]; Table 8, nmol per mg protein): 95.7 nmol/mg protein; PI ([1]; Table 8, nmol per mg protein): 5.49 nmol/mg protein; SM ([1]; Table 8, nmol per mg protein): 7.52 nmol/mg protein; Total Phospholipids ([1]; Table 8, nmol per mg protein): 322.8 nmol/mg protein; PC [1, 4]: 12.02 nmol/microgram DNA; PE [1, 4]: 9.98 nmol/microgram DNA; PI [1, 4]: 0.571 nmol/microgram DNA; SM [1, 4]: 0.792 nmol/microgram DNA; Total Phospholipids [1, 4]: 33.80 nmol/microgram DNA; Increase in brain PC per cell (DNA) ([1]; rat pups 20 days post-birth): 36%; Increase in brain PE per cell (DNA) ([1]; rat pups 20 days post-birth): 38%; Increase in brain PI per cell (DNA) ([1]; rat pups 20 days post-birth): 166%; Increase in brain sphingomyelin (SM) per cell (DNA) ([1]; rat pups 20 days post-birth): 78%; Phospholipid synthesis enhanced [2]: not; CDP-choline levels (FIG. 5A) [3]: decreased; CDP-ethanolamine levels (FIG. 5B) [3]: decreased
